Patent US11806358B1, “Method of treating trypanosomiasis” (KING FAISAL UNIVERSITY, priority 2023, dated 2023)
In brackets after ≈: the same amount, converted by molar mass.

Columns and labels:
[1] = tested on: T. congolense (Tc) IL3000; experiment: Anti-trypanosomal assay (CellTiter-Glo), TcIL3000; format: cell-based; settings: mean ± SD
Protocol: Six trypanosome species namely T. b. brucei (Tbb) GuTat3.1, T. b. rhodesiense (Tbr) IL1501, T. b. gambiense (Tbg) IL1922, T. evansi (Tev) Tansui, T. equiperdum (Teq) IVM-t1 and T. congolense (Tc) IL3000, were cultivated using HMI-9 medium and used in the study. The trypanocidal activity of hesperidin and neohesperidin dihydrochalcone, shown below, was assessed at 25 μg/ml or […].
(§1) The IC50 of Neohesperidin dihydrochalcone against six trypanosome species was determined using serial dilution in a 96-well plate (Optical bottom plate, ThermoFisher SCIENTIFIC, MA, USA). After three days, […] of CellTiter-Glo Luminescent cell viability reagent (Promega Corporation, WI, USA) was aliquoted into each well and luminosity was measured with a GloMax plate reader (Promega Corporation, WI, USA).

[2] = tested on: T. b. brucei (Tbb) GuTat3.1; experiment: Anti-trypanosomal assay (CellTiter-Glo), TbbGUTat3.1; format: cell-based; settings: mean ± SD
Protocol: (§2) Six trypanosome species namely T. b. brucei (Tbb) GuTat3.1, T. b. rhodesiense (Tbr) IL1501, T. b. gambiense (Tbg) IL1922, T. evansi (Tev) Tansui, T. equiperdum (Teq) IVM-t1 and T. congolense (Tc) IL3000, were cultivated using HMI-9 medium and used in the study. […]
as §1

[3] = tested on: T. b. rhodesiense (Tbr) IL1501; experiment: Anti-trypanosomal assay (CellTiter-Glo), TbrIL1501; format: cell-based; settings: mean ± SD
Protocol: as §2, §1

[4] = tested on: T. b. gambiense (Tbg) IL1922; experiment: Anti-trypanosomal assay (CellTiter-Glo), TbgIL1922; format: cell-based; settings: mean ± SD
Protocol: as §2, §1

T. evansi (Tev) Tansui = experiment: Anti-trypanosomal assay (CellTiter-Glo), Tev Tansui; format: cell-based; settings: mean ± SD
Protocol: as §2, §1

[5] = tested on: T. equiperdum (Teq) IVM-t1; experiment: Anti-trypanosomal assay (CellTiter-Glo), Teq IVM-t1; format: cell-based
Protocol: as §2, §1

six trypanosome species = experiment: Anti-trypanosomal assay, statements over all six species; format: cell-based, Trypanosoma; settings: for antitrypanosomal activity: assayed at 0.25 or 25 μg/ml; for trypanocidal activity (words): at about 25 μg/ml
Protocol: as §2, §1

Trypanosoma = settings: previously tested; cited from earlier work
Toxoplasma gondii = settings: compared to other flavonoids and conventional medicines; cited from earlier work
[6] = Trypanosoma equiperdum, read-out: Inhibition rate

For COc1ccc([C@@H]2CC(=O)c3c(O)cc(O[C@@H]4O[C@H](CO[C@@H]5O[C@@H](C)[C@H](O)[C@@H](O)[C@H]5O)[C@@H](O)[C@H](O)[C@H]4O)cc3O2)cc1O [Hesperidin, hesperidin, reference compound], the inhibition at 0.25 µg/mL ([1]; Trypanosoma congolense, TcIL3000, 0.25 μg/ml, read-out: Inhibition rate) was 0%, the inhibition at 25 µg/mL ([1]; Trypanosoma congolense, TcIL3000, 25 μg/ml, read-out: Inhibition rate) was 0% and the inhibition at 0.25 µg/mL ([2]; Trypanosoma brucei, TbbGUTat3.1, 0.25 μg/ml, read-out: Inhibition rate) was 0%. The inhibition at 25 µg/mL ([2]; Trypanosoma brucei, TbbGUTat3.1, 25 μg/ml, read-out: Inhibition rate) was 1.05 ± 0.99%, the inhibition at 0.25 µg/mL ([3]; Trypanosoma brucei, RHODESIENSE, TbrIL1501, 0.25 μg/ml, read-out: Inhibition rate) was 7.17 ± 3.1% and the inhibition at 25 µg/mL ([3]; Trypanosoma brucei, RHODESIENSE, TbrIL1501, 25 μg/ml, read-out: Inhibition rate) was 0%. The inhibition at 0.25 µg/mL ([4]; Trypanosoma brucei, GAMBIENSE, TbgIL1922, 0.25 μg/ml, read-out: Inhibition rate) was 1.56 ± 2.2%, the inhibition at 25 µg/mL ([4]; Trypanosoma brucei, GAMBIENSE, TbgIL1922, 25 μg/ml, read-out: Inhibition rate) was 0% and the inhibition at 0.25 µg/mL (T. evansi (Tev) Tansui; 0.25 μg/ml, read-out: Inhibition rate) was 7.67 ± 5.9%. For the same compound, the inhibition at 25 µg/mL (T. evansi (Tev) Tansui; 25 μg/ml, read-out: Inhibition rate) was 0%, the inhibition at 0.25 µg/mL [5, 6] was 0.015 ± 0.022% and the inhibition at 25 µg/mL [5, 6] was 0.97 ± 1.37%. The “antitrypanosomal activity” value (six trypanosome species) was “inadequate antitrypanosomal activity”, the “trypanocidal activity (words)” value (six trypanosome species) was “no activity” and the “trypanocidal action” value (Trypanosoma) was “did not previously show any trypanocidal action”.
In the case of COc1ccc(CCC(=O)c2c(O)cc(O[C@@H]3O[C@H](CO)[C@@H](O)[C@H](O)[C@H]3O[C@@H]3O[C@@H](C)[C@H](O)[C@@H](O)[C@H]3O)cc2O)cc1O [Neohesperidin dihydrochalcone, neohesperidin dihydrochalcone], the Inhibition rate ([1]; TcIL3000, 0.25 μg/ml) is reported as 0%, the Inhibition rate ([1]; TcIL3000, 25 μg/ml) is reported as 82.07 ± 6.4% and the IC50 ([1]; TcIL3000, three days) is reported as 22.53 ± 2.3 µg/mL (≈ 36.8 µM). The Inhibition rate ([2]; TbbGUTat3.1, 0.25 μg/ml) was 2.89 ± 1.69%, the Inhibition rate ([2]; TbbGUTat3.1, 25 μg/ml) was 99.65 ± 0.2% and the Inhibition rate ([2]; TbbGUTat3.1, 25 μg/ml, listed as neohesperidin dihydrochalcone) was “more than 99%”. For the same compound, the IC50 ([2]; TbbGUTat3.1, three days) was 11.97 ± 0.026 µg/mL (≈ 19.5 µM), the Inhibition rate ([3]; TbrIL1501, 0.25 μg/ml) was 3.95 ± 5.59% and the Inhibition rate ([3]; TbrIL1501, 25 μg/ml) was 99.63 ± 0.25%. The Inhibition rate ([3]; TbrIL1501, 25 μg/ml, listed as neohesperidin dihydrochalcone) was “more than 99%”, the IC50 ([3]; TbrIL1501, three days) was 9.47 ± 2.73 µg/mL (≈ 15.5 µM) and the Inhibition rate ([4]; TbgIL1922, 0.25 μg/ml) was 1.09 ± 0.64%. The Inhibition rate ([4]; TbgIL1922, 25 μg/ml) was 99.63 ± 0.28%, the Inhibition rate ([4]; TbgIL1922, 25 μg/ml, listed as neohesperidin dihydrochalcone) was “more than 99%” and the IC50 ([4]; TbgIL1922, three days) was 8.88 ± 3.84 µg/mL (≈ 14.5 µM). The Inhibition rate (T. evansi (Tev) Tansui; 0.25 μg/ml) was 3.59 ± 5.5%, the Inhibition rate (T. evansi (Tev) Tansui; 25 μg/ml) was 99.18 ± 0.22% and the Inhibition rate (T. evansi (Tev) Tansui; 25 μg/ml, listed as neohesperidin dihydrochalcone) was “more than 99%”. For the same compound, the IC50 (T. evansi (Tev) Tansui; three days) was 12.69 ± 0.98 µg/mL (≈ 20.7 µM), the Inhibition rate ([5]; Teq IVM-t1, 0.25 μg/ml, mean ± SD) was 0.59 ± 0.84% and the Inhibition rate ([5]; Teq IVM-t1, 25 μg/ml, mean ± SD) was 98.8 ± 0.17%. The Inhibition rate ([5]; Teq IVM-t1, 25 μg/ml, mean ± SD, listed as neohesperidin dihydrochalcone) was “more than 99%”, the IC50 ([5]; Teq IVM-t1, three days, mean ± SD) was 11.38 ± 3.93 µg/mL (≈ 18.6 µM) and the “antitrypanosomal activity” value (six trypanosome species) was “broad-spectrum and strong inhibition of trypanosomal growth”. The “trypanocidal activity (words)” value (six trypanosome species) was “substantial trypanocidal activity”, the “trypanocidal activity (words)” value (six trypanosome species; listed as neohesperidin dihydrochalcone) was “suppressed all the test strains” and the “inhibition rate, range over the species” value (six trypanosome species; low concentration of 0.25 μg/ml) was 1.09-3.95%. The “IC50 range over the six species” value (six trypanosome species; six Trypanosoma species) was 8.88 to 22.53 µg/mL.
In the case of COc1ccc([C@@H]2CC(=O)c3c(O)cc(O[C@@H]4O[C@H](CO)[C@@H](O)[C@H](O)[C@H]4O[C@@H]4O[C@@H](C)[C@H](O)[C@@H](O)[C@H]4O)cc3O2)cc1O [neohesperidin], the “antiprotozoal activity against Toxoplasmosis” value (Toxoplasma gondii) is listed as “not as effective as other standard drugs or flavonoids”.
